According to paper PMC12040169 (PLOS Biology, 2025):

test: in vitro; details: human, hela cells, % viability

Structure (SMILES) | viability at 28.5 h, 10 µM [%]
CC1=CC(C)C(CN2CC34C=CC(O3)C(C(=O)O)C4C2=O)C(C)C1 (centres unmarked) [CBK287005] | 96.1
O=C(O)c1cc(NCc2cccc(F)c2F)n[nH]1 [CBK287006] | 93.4
CCCNC(=O)Nc1ccc(Cl)c(C(=O)O)c1 [CBK287009] | 85.6
O=C(O)COc1ccc(N2C(=O)C(O)=C(C(=O)c3ccccc3)C2c2cccc(F)c2)cc1 (centres unmarked) [CBK287010] | 96.8
Cc1nn2c(=O)c(CCC(=O)O)c(C)[nH]c2c1-c1ccccc1 [CBK287011] | 92.4
CN1C(C(=O)O)=CC(c2ccc(F)cc2)=NS1(=O)=O [CBK287016] | 97.7
O=C(O)COc1ccccc1/C=C/c1cc(C(F)(F)F)[nH]c(=O)n1 [CBK287017] | 103
COc1cc(C(=O)O)cc2c1NC(c1ccc(C(=O)O)cc1)C1CC=CC21 (centres unmarked) [CBK287018] | 90.3
CC(=O)N1CCN(C(=O)C2C(C(=O)O)C2(C)C)CC1 (centres unmarked) [CBK287021] | 102
O=C(O)C1CCCN1C(=O)c1ccc(C#CC2(O)CCCCC2)cc1 (centres unmarked) [CBK287022] | 105
Cc1ccc(OCC(=O)Nc2cccc(C(=O)O)c2)cc1 [CBK287023] | 110
Cc1ccc(Cl)cc1N1CCN(C(=O)C2C3C=CC(C3)C2C(=O)O)CC1 (centres unmarked) [CBK287025] | 117
CC(C)(C)OC(=O)NCCCn1cc(C(=O)O)nn1 [CBK287028] | 90.4
CC(C)(C)OC(=O)NCC1(CC(=O)O)CCCCC1 [CBK287030] | 93
O=C(O)C1CCCCC1C(=O)NCCN1CCCCC1 (centres unmarked) [CBK287031] | 91.4
CCOCCN1C[C@@H](C(F)(F)F)[C@H](C(=O)O)C1 [CBK287033] | 91.9
COc1ccccc1C(=O)Nc1ccc(Cl)c(C(=O)O)c1 [CBK287034] | 82.1
O=C(O)C(=O)c1cn(Cc2ccccc2Cl)c2ccccc12 [CBK287035] | 88.8
CC1=CC(c2ccccc2)N2N=C(NC(=O)CCCC(=O)O)NC2=N1 (centres unmarked) [CBK287037] | 81.1
O=C(O)c1ccccc1C(=O)Nc1c(-c2ccccc2)nc2ccccn12 [CBK287041] | 96.2
CC(CC(=O)O)CC(=O)NC1CCN(Cc2ccccc2)CC1 (centres unmarked) [CBK287042] | 91.4
Cc1cccc(N2CCN(C(=O)C3C4CCC(O4)C3C(=O)O)CC2)c1C (centres unmarked) [CBK287044] | 90
O=C(O)CCC1NC(=O)N(C2CCCCC2)C1=O (centres unmarked) [CBK287046] | 77.3

Structure (SMILES) | viability at 28.5 h, 10 µM [%]
Cc1ccc(-n2nnnc2SCC(=O)O)cc1 [CBK287048] | 94.1
COc1ccc(-c2nc3ccccn3c2CN2CCC(C(=O)O)CC2)cc1 [CBK287052] | 88.4
CC(C)C1(C)N=C(c2nc3ccccc3cc2C(=O)O)NC1=O (centres unmarked) [CBK287057] | 86.1
Cc1cc(=O)oc2cc(OCC(=O)Nc3cccc(C(=O)O)c3)ccc12 [CBK287058] | 85
O=C(O)CCC(=O)N(Cc1ccco1)C1CC(=O)N(c2ccc(F)cc2)C1=O (centres unmarked) [CBK287059] | 92.1
Cc1nc(=O)c(-c2ccccc2)c(C)n1CCCCCC(=O)O [CBK287060] | 113
CC(NC(=O)C1C2CCC(CC2)C1C(=O)O)c1ccncc1 (centres unmarked) [CBK287061] | 102
CCCNC(C)C(=O)Nc1c(C)csc1C(=O)O (centres unmarked) [CBK287064] | 113
O=C(O)c1cccc(N2C(=O)C3C4C=CC(CO)(O4)C3C2=O)c1 (centres unmarked) [CBK287066] | 103
O=C(O)/C=C\C(=O)Nc1ccccc1C(=O)N1CCOCC1 [CBK287067] | 100
O=C(NC[C@H]1CC[C@H](C(=O)O)CC1)c1cc2ccccc2[nH]1 [CBK287069] | 105
O=C(O)CCc1nc(-c2ccc3[nH]ccc3c2)no1 [CBK287070] | 99.3
CS(=O)(=O)N1CCCc2cc(C(=O)O)ccc21 [CBK287072] | 93
CC(=O)Nc1ccc(NC(=O)[C@H]2CCCC[C@H]2C(=O)O)cc1 [CBK287073] | 99.6
CCOC(=O)N1CCN(C(=O)CCC(=O)O)CC1 [CBK287075] | 97.3
O=C(O)CCSc1nc(-c2ccccc2)cc(=O)[nH]1 [CBK287076] | 102
CC(C)(C)NS(=O)(=O)c1ccc(OCC(=O)O)cc1 [CBK287077] | 100
Cc1c(CC(=O)O)c2c(n1Cc1ccc(F)cc1)CCCC2=O [CBK287078] | 103
O=C(O)c1[nH]n(-c2ccc(Cl)cc2)c(=O)c1CCO [CBK287079] | 101
CC1CCC(C(=O)NC(Cc2ccccc2)C(=O)O)CC1 (centres unmarked) [CBK287080] | 90.5
COc1ccc(OC)c(NC(=O)c2ccccc2C(=O)O)c1 [CBK287082] | 86.9
O=C(O)CNC(=O)CNC(=O)C12CC3CC(CC(C3)C1)C2 [CBK287083] | 81.4
COc1ccc(S(=O)(=O)N(C)CC(=O)O)cc1 [CBK287086] | 85.9

Structure (SMILES) | viability at 28.5 h, 10 µM [%]
O=C(O)[C@H](Cc1ccccc1)Nc1ncnc2[nH]cnc12 [CBK287090] | 87
O=C(NCC1CCCO1)[C@H]1CCCC[C@H]1C(=O)O (some centres unmarked) [CBK287104] | 88.7
CC(C)CNS(=O)(=O)c1ccc(CCC(=O)O)cc1 [CBK287107] | 80.9
COc1ccc(OCC(=O)Nc2ccc(C(=O)O)c(Cl)c2)cc1 [CBK287108] | 104
Cc1nc(-c2ccccc2)nc2c1c(N)nn2CC(=O)O [CBK287109] | 95.1
O=C1CC(c2ccccc2)c2snc(C(=O)O)c2N1 (centres unmarked) [CBK287111] | 90.5
O=C(O)c1ccccc1C(=O)NCCC1=CCCCC1 [CBK287113] | 87.8
Cc1ccc(S(=O)(=O)N(CC(=O)O)c2ccc(C(C)C)cc2)cc1 [CBK287116] | 85.3
CN(C(=O)c1ccccc1C(=O)O)C1CC(C)(C)NC(C)(C)C1 [CBK287117] | 98.2
O=C1CC(c2ccc(C(=O)O)cc2)c2sccc2N1 (centres unmarked) [CBK287119] | 91.9
COc1ccc(-c2cc(C(=O)NCC(=O)O)c(C)o2)cc1OC [CBK287130] | 86.7
COc1ccc(C2NC(C(=O)O)CS2)cc1CN1CCOCC1 (centres unmarked) [CBK287132] | 87.4
CC(C)(C)c1oc(C(=O)O)cc1CN1CCCC1 [CBK287136] | 84.7
CN1CCN(c2cc3c(cc2F)c(=O)c(C(=O)O)cn3-c2ccc(F)cc2)CC1 [CBK287138] | 78.4
CCCOc1ccc(C(CC(=O)O)NS(=O)(=O)c2ccc(F)cc2)cc1 (centres unmarked) [CBK287139] | 102
O=C(O)c1ccc(N2CCCCS2(=O)=O)cc1Cl [CBK287142] | 84.5
CC(C)(C)OC(=O)N1CCN(CCC(=O)O)CC1 [CBK287143] | 101
COc1cccc(C(=O)N2Cc3ccccc3CC2C(=O)O)c1 (centres unmarked) [CBK287150] | 102
CS(=O)(=O)N(CC(=O)O)c1ccc2c(c1)OCCO2 [CBK287151] | 96.6
CCCNS(=O)(=O)c1cc(C(=O)O)ccc1OC [CBK287152] | 98
CCCCC(C(=O)O)N1C(=O)c2ccccc2C1=O (centres unmarked) [CBK287153] | 101

same assay, conditions: human, hela cells, % viability, bulk resorufin, single well

Structure (SMILES) | viability at 28.5 h, 10 µM [%]
O=C(O)Cn1cc(C(=O)c2ccccc2F)c2ccccc21 [CBK287100] | 92.7
